Test results taken from US4939124A, “Treatment and diagnosis of dementia” (Laboratorios Serono S.A., priority 1988, dated 1990).

How the values were obtained:
Format in all cases: in vivo, human
[1] = tested on: SDAT patients and controls; assay: Mental performance and behavior after the GRF test (DRS, MMS, BCRS, MNS); conditions: for DRS score: basal 3.5±1.75; for MMS score: basal 3.5±2.65
Description: (§1) All the SDAT patients met the DSM-III criteria for primary degenerative dementia and rigorous diagnostic criteria for SDAT. […] In LOSDAT, the onset of the disease occurred after the age of 60. The degree of severity of the dementia was assessed with Hasegawa's Dementia Rating Scale (DRS) (Hasegawa K., Inoue K. "An investigation of dementia rating scale for the elderly." Seishinigaku 16:965-969, 1974), Folstein's Mini-Mental State (MMS) Test (Folstein M. F., Folstein S., McHugh P. "Mini-mental state: a practical method for grading the cognitive state of patients for the clinician." J. Psychiat. Res. 12:189-198, 1975) and a modified model of the Brief Cognitive Rating Scale (BCRS) and Functional Assessment Stages (FAST) of Reisberg (Reisberg B., Ferris S. H., De Leon M. J. "Senile dementia of the Alzheimer type: Diagnosis and differential diagnostic features with special reference to functional assessment staging." in: Traber J., Gispen W. H. (Ed). Senile dementia of the Alzheimer type. pp 18-37, Springer-Verlag, Berlin, 1985). Concomitant pathology other than SDAT was discarded under a careful screening of the subjects with CT Scan, EEG, ECG and complementary laboratory data. Current diagnosis or history of SDM-III major affective disorder or schizophrenia as well as history of endocrine disease were criteria for exclusion. All of the control subjects were free of psychiatric and endocrine illness. All subjects included had been drug-free for a minimum of 7 days before testing.
(§2) Simultaneously to the performance of the GRF test, electroencephalograhic and cardiovascular monitorization of the subjects were carried out. Twenty-four hours prior to the GRF test, and 3, 12, 24 and 48 hours after testing, the DRS, MMS, BCRS, and FAST tests were performed to evaluate mental performance and behavior. Additional monitoring of GRF effects was done by global physician assessment and evaluation of the Mihara Nursing Scale (MNS). This test was developed to be used as a non-cognitive parametric indicator involving several items, including quantification of food intake, locomotion, social interaction, and complementary laboratory data.
(§3) The results were analyzed statistically by the Student's test, analysis of variance (ANOVA) and the Mann-Whitney test using a NEC PC-9801VM2 computer.

growth hormone (GH) = assay: GRF test: GRF-induced plasma GH response (radioimmunoassay); conditions: for GRF-induced GH response: GRF(1-44)NH2 100 mcg i.v. bolus
Text: The subjects were divided into three groups:
(a) controls (N =9): 5 females and 4 males (age =70.10±2.76 years; range =66-75);
(b) inpatients with early onset senile dementia of the Alzheimer type (EOSDAT) (N =10): 5 females and 5 males (age 65.00±3.31 years; range =57-69); and
(c) inpatients with late onset senile dementia of the Alzheimer type (LOSDAT) (N =10): 5 females and 5 males (age =75.70±3.77 years; range =70-82).
as §1
A 21-gauge indwelling venous needle with an attached three-way stopcook was inserted into the antecubital vein. Baseline blood samples for GH determination were collected immediately before testing. GRF(1-44)NH2was then injected as an intravenous bolus (100 mcg), and blood samples were obtained at 15, 30, 45, 60, 90 and 120 minutes after injection for determination of GH concentrations in plasma. The plasma GH levels were measured by radioimmunoassay using a commercial GH-RIA-Kit (Dainabot Co. Ltd. Tokyo). The intra- and inter-assay coefficients of variation were 6.9% and 10.6%, respectively.
as §3

[2] = tested on: controls and SDAT subjects; assay: Electroencephalographic monitoring during the GRF test; conditions: for EEG amplitude, sequential analysis (increase) / EEG frequency, sequential analysis (fall): 15 to 45 minutes after injection
Description: as §2, §3

bulimic syndrome developed ([1]; after GRF test): 2 patients
Substance: growth hormone releasing factor [GRF]
DRS score ([1]; 3 hr after GRF test): 5.5±2.10
MMS score ([1]; 3 hr after GRF test): 5.15±3.75
DRS score ([1]; 12 hr after GRF test): 6.75±3.25
MMS score ([1]; 12 hr after GRF test): 5.5±3.65
DRS score ([1]; 24 hr after GRF test): 4.35±1.95
MMS score ([1]; 24 hr after GRF test): 4.5±2.75
DRS score ([1]; 48 hr after GRF test): 3.5±1.55
MMS score ([1]; 48 hr after GRF test): 4.35±2.75
duration of behavioral changes ([1]; BCRS and MNS changes after GRF test): transient
BCRS Axis 4 (orientation) affected by GRF ([1]; after GRF test): 30%
BCRS Axis 7 (psychomotor) affected by GRF ([1]; after GRF test): 50%
BCRS Axis 8 (mood and behavior) affected by GRF ([1]; after GRF test): 40%
appetite increased (MNS), share of subjects ([1]; controls): 30%
appetite increased (MNS), share of subjects ([1]; patients): 45%
social interaction improved (MNS), share of subjects ([1]; patients): 40%
plasma GH (growth hormone (GH); CONTROL (females), 0 min (basal, before GRF(1-44)NH2 100 mcg i.v.)): 1.03 ± 0.94 ng/mL
plasma GH (growth hormone (GH); CONTROL (females), 15 min after GRF(1-44)NH2 100 mcg i.v.): 3.09 ± 1.58 ng/mL
plasma GH (growth hormone (GH); CONTROL (females), 30 min after GRF(1-44)NH2 100 mcg i.v.): 3.68 ± 2.09 ng/mL
plasma GH (growth hormone (GH); CONTROL (females), 45 min after GRF(1-44)NH2 100 mcg i.v.): 4.28 ± 3.38 ng/mL
plasma GH (growth hormone (GH); CONTROL (females), 60 min after GRF(1-44)NH2 100 mcg i.v.): 2.97 ± 1.96 ng/mL
plasma GH (growth hormone (GH); CONTROL (females), 90 min after GRF(1-44)NH2 100 mcg i.v.): 2.04 ± 1.38 ng/mL
plasma GH (growth hormone (GH); CONTROL (females), 120 min after GRF(1-44)NH2 100 mcg i.v.): 1.10 ± 0.95 ng/mL
plasma GH (growth hormone (GH); CONTROL (males), 0 min (basal, before GRF(1-44)NH2 100 mcg i.v.)): 1.07 ± 0.92 ng/mL
plasma GH (growth hormone (GH); CONTROL (males), 15 min after GRF(1-44)NH2 100 mcg i.v.): 2.21 ± 1.87 ng/mL
plasma GH (growth hormone (GH); CONTROL (males), 30 min after GRF(1-44)NH2 100 mcg i.v.): 3.16 ± 2.76 ng/mL
plasma GH (growth hormone (GH); CONTROL (males), 45 min after GRF(1-44)NH2 100 mcg i.v.): 5.17 ± 3.46 ng/mL
plasma GH (growth hormone (GH); CONTROL (males), 60 min after GRF(1-44)NH2 100 mcg i.v.): 3.17 ± 2.61 ng/mL
plasma GH (growth hormone (GH); CONTROL (males), 90 min after GRF(1-44)NH2 100 mcg i.v.): 1.88 ± 1.87 ng/mL
plasma GH (growth hormone (GH); CONTROL (males), 120 min after GRF(1-44)NH2 100 mcg i.v.): 0.91 ± 0.87 ng/mL
delay of GH response relative to the small peak in control subjects (growth hormone (GH); EOSDAT): about 15 minutes
plasma GH (growth hormone (GH); EOSDAT (females), 0 min (basal, before GRF(1-44)NH2 100 mcg i.v.)): 1.92 ± 1.52 ng/mL
plasma GH (growth hormone (GH); EOSDAT (females), 15 min after GRF(1-44)NH2 100 mcg i.v.): 2.23 ± 1.90 ng/mL
plasma GH (growth hormone (GH); EOSDAT (females), 30 min after GRF(1-44)NH2 100 mcg i.v.): 6.26 ± 2.05 ng/mL
plasma GH (growth hormone (GH); EOSDAT (females), 45 min after GRF(1-44)NH2 100 mcg i.v.): 14.86 ± 3.57 ng/mL
plasma GH (growth hormone (GH); EOSDAT (females), 60 min after GRF(1-44)NH2 100 mcg i.v.): 19.74 ± 4.86 ng/mL
plasma GH (growth hormone (GH); EOSDAT (females), 90 min after GRF(1-44)NH2 100 mcg i.v.): 11.28 ± 5.72 ng/mL
plasma GH (growth hormone (GH); EOSDAT (females), 120 min after GRF(1-44)NH2 100 mcg i.v.): 5.09 ± 3.01 ng/mL
plasma GH (growth hormone (GH); EOSDAT (males), 0 min (basal, before GRF(1-44)NH2 100 mcg i.v.)): 1.99 ± 1.67 ng/mL
plasma GH (growth hormone (GH); EOSDAT (males), 15 min after GRF(1-44)NH2 100 mcg i.v.): 2.70 ± 1.92 ng/mL
plasma GH (growth hormone (GH); EOSDAT (males), 30 min after GRF(1-44)NH2 100 mcg i.v.): 5.49 ± 1.91 ng/mL
plasma GH (growth hormone (GH); EOSDAT (males), 45 min after GRF(1-44)NH2 100 mcg i.v.): 6.87 ± 2.84 ng/mL
plasma GH (growth hormone (GH); EOSDAT (males), 60 min after GRF(1-44)NH2 100 mcg i.v.): 11.52 ± 2.82 ng/mL
plasma GH (growth hormone (GH); EOSDAT (males), 90 min after GRF(1-44)NH2 100 mcg i.v.): 7.41 ng/mL
plasma GH (growth hormone (GH); EOSDAT (males), 120 min after GRF(1-44)NH2 100 mcg i.v.): 2.73 ± 1.71 ng/mL
rise of plasma GH levels after GRF injection (growth hormone (GH); EOSDAT females): 19.74 ± 4.86 ng·mL
rise of plasma GH levels after GRF injection (growth hormone (GH); EOSDAT males): 11.52 ± 2.82 ng/mL
rise of plasma GH levels after GRF injection, individual range (growth hormone (GH); EOSDAT responders): 5.5 to 28.75 ng/mL
maximum peak of plasma GH (growth hormone (GH); EOSDAT, 60 minutes after GRF(1-44)NH2 100 mcg i.v. bolus): 15.61 ± 5.71 ng/mL
plasma GH (growth hormone (GH); LOSDAT (females), 0 min (basal, before GRF(1-44)NH2 100 mcg i.v.)): 1.09 ± 1.01 ng/mL
plasma GH (growth hormone (GH); LOSDAT (females), 15 min after GRF(1-44)NH2 100 mcg i.v.): 2.04 ± 1.01 ng/mL
plasma GH (growth hormone (GH); LOSDAT (females), 30 min after GRF(1-44)NH2 100 mcg i.v.): 3.65 ± 2.35 ng/mL
plasma GH (growth hormone (GH); LOSDAT (females), 45 min after GRF(1-44)NH2 100 mcg i.v.): 4.68 ± 3.18 ng/mL
plasma GH (growth hormone (GH); LOSDAT (females), 60 min after GRF(1-44)NH2 100 mcg i.v.): 4.97 ± 3.86 ng/mL
plasma GH (growth hormone (GH); LOSDAT (females), 90 min after GRF(1-44)NH2 100 mcg i.v.): 4.04 ± 3.22 ng/mL
plasma GH (growth hormone (GH); LOSDAT (females), 120 min after GRF(1-44)NH2 100 mcg i.v.): 2.44 ± 2.05 ng/mL
plasma GH (growth hormone (GH); LOSDAT (males), 0 min (basal, before GRF(1-44)NH2 100 mcg i.v.)): 0.95 ± 0.98 ng/mL
plasma GH (growth hormone (GH); LOSDAT (males), 15 min after GRF(1-44)NH2 100 mcg i.v.): 2.13 ± 0.94 ng/mL
plasma GH (growth hormone (GH); LOSDAT (males), 30 min after GRF(1-44)NH2 100 mcg i.v.): 2.81 ± 1.90 ng/mL
plasma GH (growth hormone (GH); LOSDAT (males), 45 min after GRF(1-44)NH2 100 mcg i.v.): 3.61 ± 3.51 ng/mL
plasma GH (growth hormone (GH); LOSDAT (males), 60 min after GRF(1-44)NH2 100 mcg i.v.): 4.09 ± 2.56 ng/mL
plasma GH (growth hormone (GH); LOSDAT (males), 90 min after GRF(1-44)NH2 100 mcg i.v.): 3.08 ± 2.22 ng/mL
plasma GH (growth hormone (GH); LOSDAT (males), 120 min after GRF(1-44)NH2 100 mcg i.v.): 1.64 ± 0.82 ng/mL
GRF-induced GH response (growth hormone (GH); LOSDAT): absent
GRF-induced GH response (growth hormone (GH); control subjects): absent
EEG amplitude, sequential analysis (increase) ([2]; SDAT patients): 52.5±9.89 uV
EEG frequency, sequential analysis (fall) ([2]; SDAT patients): 7.05±0.90 Hz
EEG basic rhythm frequency, global evaluation after testing ([2]; SDAT, prior to GRF test 8.08±0.67 Hz): 7.46±0.53 Hz
EEG basic rhythm amplitude, global evaluation after testing ([2]; SDAT, prior to GRF test 40.80±6.06 uV): 43.69±5.12 uV
EEG amplitude, sequential analysis (increase) ([2]; control subjects): 55.60±6.40 uV
EEG frequency, sequential analysis (fall) ([2]; control subjects): 8.75±0.25 Hz
EEG basic rhythm frequency, global evaluation after testing ([2]; controls, prior to GRF test 9.27±0.11 Hz): 9.05±0.12 Hz
EEG basic rhythm amplitude, global evaluation after testing ([2]; controls, prior to GRF test 47.36±3.36 uV): 49.67±5.75 uV
